Experimental data: ChEMBL document CHEMBL4406814, “Furocoumarins as multi-target agents in the treatment of cystic fibrosis” (Eur J Med Chem, 2019)

Experiments:
Type in all cases: cell-based
IB3-1 [1] = assay: Inhibition of TNF-alpha induced NFkappaB in human IB3-1 cells assessed as reduction in IL-8 mRNA expression at 10 uM preincubated for 5 hrs followed by TNF-alpha stimulation measured after 24 hrs by RT-qPCR analysis relative to control
IB3-1 [2] = assay: Inhibition of TNF-alpha induced NFkappaB in human IB3-1 cells assessed as reduction in IL-8 mRNA expression at 1 uM preincubated for 5 hrs followed by TNF-alpha stimulation measured after 24 hrs by RT-qPCR analysis relative to control
[3] = Inhibition of TNF-alpha induced NFkappaB in human IB31 cells assessed as reduction in IL-8 mRNA expression preincubated for 5 hrs followed by TNF-alpha stimulation measured after 24 hrs by RT-qPCR analysis; conditions: IB3-1

Structure (SMILES)	inhibition (IB3-1 [1]) [%]	inhibition (IB3-1 [2]) [%]	IC50 [3] [µM]
Cc1cc2c(CO)cc(=O)oc2c2c(C)coc12	52	51	
Cc1oc2c(C)cc3c(C)cc(=O)oc3c2c1C	56	57	
Cc1cc2c(C)cc3oc(=O)cc(C)c3c2o1	81	68	
CCc1cc(=O)oc2c1cc(CC)c1occ(C)c12			17.8
CCCc1cc(=O)oc2c1cc(CC)c1occ(C)c12			19.8
Cc1cc(=O)oc2c1ccc1oc(CN)cc12	83	55	
CCCc1cc(=O)oc2c1cc(C)c1occ(C)c12			21.9
Cc1oc2c(c(C)cc3oc(=O)cc(C)c32)c1C	47	66	
Cc1coc2c1c(C)cc1oc(=O)cc(C)c12	52	73	
Cc1cc2c(C(C)C)cc(=O)oc2c2c(C)coc12			18.9
CCc1cc2c(C(C)C)cc(=O)oc2c2c(C)coc12			7.4
CCc1cc2c(C)cc(=O)oc2c2c(C)coc12			24
CCc1cc(=O)oc2c1cc(C)c1occ(C)c12			8
